In patent publication US20050245399A1, “Pyrazole derivatives as herbicidal compositions containing them” (ISHIHARA SANGYO KAISHA, LTD., priority 2004, published 2005):

Experiments:
[1] = test system: barnyardgrass (Echinochloa crus-galli L.): ECHCG; assay: Test Example 1 pre-emergence herbicidal activity, ECHCG; format: in vivo; conditions: visually observed 20th to 23rd day after application
How it was run: (§1)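 Pre-emergence soil spray: wettable powder or emulsifiable concentrate diluted in water (500 L/ha) applied one day after sowing in upland field soil. Visual growth-control rating (%) on days 20–23, 0 = untreated control, 100 = complete kill.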

[2] = test system: crabgrass (Digitaria sanguinalis L.): DIGSA; assay: Test Example 1 pre-emergence herbicidal activity, DIGSA; format: in vivo; conditions: visually observed 20th to 23rd day after application
How it was run: as §1

[3] = test system: green foxtail (Setaria viridis L.): SETVI; assay: Test Example 1 pre-emergence herbicidal activity, SETVI; format: in vivo; conditions: visually observed 20th to 23rd day after application
How it was run: as §1

[4] = test system: redroot pigweed (Amaranthus retroflexus L.): AMARE; assay: Test Example 1 pre-emergence herbicidal activity, AMARE; format: in vivo; conditions: visually observed 20th to 23rd day after application
How it was run: as §1

[5] = test system: prickly sida (Sida spinosa L.): SEDSP; assay: Test Example 1 pre-emergence herbicidal activity, SIDSP; format: in vivo; conditions: visually observed 20th to 23rd day after application
How it was run: as §1

[6] = test system: velvetleaf (Abutilon theophrasti): ABUTH; assay: Test Example 1 pre-emergence herbicidal activity, ABUTH; format: in vivo; conditions: visually observed 20th to 23rd day after application
How it was run: as §1

[7] = test system: rice (Oryza sativa L.): ORYSA; assay: Test Example 1 pre-emergence herbicidal activity, ORYSA; format: in vivo; conditions: visually observed 20th to 23rd day after application
How it was run: as §1

[8] = test system: wheat (Triticum aestivum L.): TRZAX; assay: Test Example 1 pre-emergence herbicidal activity, TRZAX; format: in vivo; conditions: visually observed 20th to 23rd day after application
How it was run: as §1

[9] = test system: corn (Zea mays L.): ZEAMX; assay: Test Example 1 pre-emergence herbicidal activity, ZEAMX; format: in vivo; conditions: visually observed 20th to 23rd day after application
How it was run: as §1

[10] = test system: soybean (Glycine max Merr.): GLXMA; assay: Test Example 1 pre-emergence herbicidal activity, GLXMA; format: in vivo; conditions: visually observed 20th to 23rd day after application
How it was run: as §1

[11] = test system: barnyardgrass (Echinochloa crus-galli L.), ECHCG; assay: Test Example 2 post-emergence (foliage treatment) herbicidal activity, ECHCG; format: in vivo; conditions: 63 g a.i./ha
How it was run: (§2)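 Visual growth-control score (0 = untreated, 100 = complete kill) taken 20th-23rd day after a foliar spray. Seedlings were grown in upland field soil and treated at leaf stage: barnyardgrass 1.1-2.1, crabgrass 1.0-2.0, redroot pigweed 0.1-1.5, rice 1.0-2. Spray volume was 500 L/ha water with 0.1% (v/v) agricultural spreader.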

[12] = test system: crabgrass (Digitaria sanguinalis L.), DIGSA; assay: Test Example 2 post-emergence (foliage treatment) herbicidal activity, DIGSA; format: in vivo; conditions: 63 g a.i./ha
How it was run: as §2

[13] = test system: green foxtail (Setaria viridis L.), SETVI; assay: Test Example 2 post-emergence (foliage treatment) herbicidal activity, SETVI; format: in vivo; conditions: 63 g a.i./ha
How it was run: (§3)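 Foliar spray of formulated compound (500 L/ha dilution water, 0.1% v/v spreader) onto young potted plants at defined leaf stages. Scored 0-100% by visual inspection 20-23 d post-spray.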

[14] = test system: redroot pigweed (Amaranthus retroflexus L.), AMARE; assay: Test Example 2 post-emergence (foliage treatment) herbicidal activity, AMARE; format: in vivo; conditions: 63 g a.i./ha
How it was run: as §2

[15] = test system: prickly sida (Sida spinosa L.), SIDSP; assay: Test Example 2 post-emergence (foliage treatment) herbicidal activity, SIDSP; format: in vivo; conditions: 63 g a.i./ha
How it was run: as §3

[16] = test system: velvetleaf (Abutilon theophrasti), ABUTH; assay: Test Example 2 post-emergence (foliage treatment) herbicidal activity, ABUTH; format: in vivo; conditions: 63 g a.i./ha
How it was run: as §3

[17] = test system: rice (Oryza sativa L.), ORYSA; assay: Test Example 2 post-emergence (foliage treatment) herbicidal activity, ORYSA; format: in vivo; conditions: 63 g a.i./ha
How it was run: as §2

[18] = test system: wheat (Triticum aestivum L.), TRZAX; assay: Test Example 2 post-emergence (foliage treatment) herbicidal activity, TRZAX; format: in vivo; conditions: 63 g a.i./ha
How it was run: as §3

[19] = test system: corn (Zea mays L.), ZEAMX; assay: Test Example 2 post-emergence (foliage treatment) herbicidal activity, ZEAMX; format: in vivo; conditions: 63 g a.i./ha
How it was run: as §3

[20] = test system: soybean (Glycine max Merr.), GLXMA; assay: Test Example 2 post-emergence (foliage treatment) herbicidal activity, GLXMA; format: in vivo; conditions: 63 g a.i./ha
How it was run: as §3

[21] = test system: barnyardgrass (Echinochiloa oryzicola: ECHOR); assay: Test Example 3 water application herbicidal activity (paddy), ECHOR; format: in vivo; conditions: 63 g a.i./ha, water application under submerged condition at 0.5 leaf stage, visually observed 14th day after application; 0 = untreated control, 100 = complete kill
How it was run: (§4)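 Flooded paddy-soil pots in greenhouse; ECHOR and SCPJO sown, SAGPY tubers planted a day later, compound applied into 3–4 cm water at weeds' 0.5-leaf stage. Rice transplanted at 2-leaf stage, treated day 4 after transplanting. Visual growth control 0–100% at 14 days (weeds) and 21 days (rice) after application.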

[22] = test system: japanese bulrush (Scirpus juncoides: SCPJO); assay: Test Example 3 water application herbicidal activity (paddy), SCPJO; format: in vivo; conditions: 63 g a.i./ha, water application under submerged condition at 0.5 leaf stage, visually observed 14th day after application; 0 = untreated control, 100 = complete kill
How it was run: as §4

[23] = test system: japanese ribbon wapato (Sagittaria pygmaea: SA GPY); assay: Test Example 3 water application herbicidal activity (paddy), SAGPY; format: in vivo; conditions: 63 g a.i./ha, water application under submerged condition, tubers planted, visually observed 14th day after application; 0 = untreated control, 100 = complete kill
How it was run: as §4

[24] = test system: rice (Oryza sativa L.: ORYSA); assay: Test Example 3 water application herbicidal activity (paddy), transplanted rice ORYSA; format: in vivo; conditions: 63 g a.i./ha, water application 4th day after transplantation of 2 leaf stage rice, visually observed 21st day after application; 0 = untreated control, 100 = complete kill
How it was run: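 Compound, as diluted wettable powder or emulsifiable concentrate, was pipetted into flood water at a set active-ingredient dose. Weeds were treated at 0.5-leaf stage after sowing or tuber planting; 2-leaf rice 4 days post-transplant. Control scored visually, 0 untreated to 100 complete kill, weeds day 14, rice day 21.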

| SMILES | Pre-emergence Herbicidal Activity ECHCG (growth controlling degree) ([1]; Rate 63 g a.i./ha) | Pre-emergence Herbicidal Activity DIGSP (growth controlling degree) ([2]; Rate 63 g a.i./ha) | Pre-emergence Herbicidal Activity SETVI (growth controlling degree) ([3]; Rate 63 g a.i./ha) | Pre-emergence Herbicidal Activity AMARE (growth controlling degree) ([4]; Rate 63 g a.i./ha) | Pre-emergence Herbicidal Activity SIDSP (growth controlling degree) ([5]; Rate 63 g a.i./ha) | Pre-emergence Herbicidal Activity ABUTH (growth controlling degree) ([6]; Rate 63 g a.i./ha) | growth controlling degree, ECHCO [11] | growth controlling degree, DIGSP [12] | growth controlling degree, SETVI [13] | growth controlling degree, AMARE [14] | growth controlling degree, SIDSP [15] | growth controlling degree, ABUTH [16] | growth controlling degree, ORYSA [17] | growth controlling degree, TRZAX [18] | growth controlling degree, ZEAMX [19] | growth controlling degree, GLXMA [20] | growth controlling degrees (%) ECHOR [21] | growth controlling degrees (%) SCPJO [22] | growth controlling degrees (%) SAGPY [23] | growth controlling degrees (%) ORYSA [24] | further results |
| --- | --- | --- | --- | --- | --- | --- | --- | --- | --- | --- | --- | --- | --- | --- | --- | --- | --- | --- | --- | --- | --- |
| COc1c(Cl)cc(F)c(-c2nn(C)c(OC(F)F)c2Cl)c1NC(=O)OCc1ccccn1 [Compound 1-69, [3-chloro-6-[4-chloro-5-(difluoromethoxy)-1-methyl-1H-pyrazol-3-yl]-5-fluoro-2-methoxyphenyl]-carbamic acid, 2-pyridinylmethyl ester] | 80% | 100% | 100% | 100% | 100% | 100% | 100% | 70% | 100% | 100% | 100% | 100% | 95% | 50% | 95% | 95% | – | – | – | – | Pre-emergence Herbicidal Activity ORYSA (growth controlling degree) ([7]; Rate 63 g a.i./ha): 10%; Pre-emergence Herbicidal Activity TRZAX (growth controlling degree) ([8]; Rate 63 g a.i./ha): 0%; Pre-emergence Herbicidal Activity ZEAMX (growth controlling degree) ([9]; Rate 63 g a.i./ha): 10%; Pre-emergence Herbicidal Activity GLXMA (growth controlling degree) ([10]; Rate 63 g a.i./ha): 10%; melting point: 35 to 37 °C |
| COc1c(Cl)cc(F)c(-c2nn(C)c(OC(F)F)c2Cl)c1NC(=O)COc1ccccc1 [Compound 1-15] | 70% | 100% | 100% | 100% | 60% | 60% | 90% | 70% | 100% | 100% | 100% | 100% | 80% | 50% | 50% | 50% | 100% | 90% | 98% | 50% | Pre-emergence Herbicidal Activity ORYSA (growth controlling degree) ([7]; Rate 63 g a.i./ha): 40%; Pre-emergence Herbicidal Activity TRZAX (growth controlling degree) ([8]; Rate 63 g a.i./ha): 30%; Pre-emergence Herbicidal Activity ZEAMX (growth controlling degree) ([9]; Rate 63 g a.i./ha): 10%; Pre-emergence Herbicidal Activity GLXMA (growth controlling degree) ([10]; Rate 63 g a.i./ha): 30% |
| COc1c(Cl)cc(F)c(-c2nn(C)c(OC(F)F)c2Cl)c1N(C(=O)CCc1ccccc1)C(=O)CCc1ccccc1 [Compound 1-18] | – | – | – | – | – | – | 70% | 70% | 80% | 100% | 100% | 100% | 60% | 10% | 60% | 60% | 100% | 40% | 50% | 30% | Pre-emergence Herbicidal Activity ECHCG (growth controlling degree) ([1]; Rate 125 g a.i./ha): 70%; Pre-emergence Herbicidal Activity DIGSP (growth controlling degree) ([2]; Rate 125 g a.i./ha): 98%; Pre-emergence Herbicidal Activity SETVI (growth controlling degree) ([3]; Rate 125 g a.i./ha): 50%; Pre-emergence Herbicidal Activity AMARE (growth controlling degree) ([4]; Rate 125 g a.i./ha): 100%; Pre-emergence Herbicidal Activity SIDSP (growth controlling degree) ([5]; Rate 125 g a.i./ha): 60%; Pre-emergence Herbicidal Activity ABUTH (growth controlling degree) ([6]; Rate 125 g a.i./ha): 40%; Pre-emergence Herbicidal Activity ORYSA (growth controlling degree) ([7]; Rate 125 g a.i./ha): 50%; Pre-emergence Herbicidal Activity TRZAX (growth controlling degree) ([8]; Rate 125 g a.i./ha): 30%; Pre-emergence Herbicidal Activity ZEAMX (growth controlling degree) ([9]; Rate 125 g a.i./ha): 0%; Pre-emergence Herbicidal Activity GLXMA (growth controlling degree) ([10]; Rate 125 g a.i./ha): 20% |
| COC(=O)CN(C=O)c1c(OC)c(Cl)cc(F)c1-c1nn(C)c(OC(F)F)c1Cl [Compound 1-20] | – | – | – | – | – | – | 10% | 20% | 70% | 100% | 90% | 60% | 50% | 10% | 40% | 50% | 90% | 20% | 0% | 30% | Pre-emergence Herbicidal Activity ECHCG (growth controlling degree) ([1]; Rate 125 g a.i./ha): 10%; Pre-emergence Herbicidal Activity DIGSP (growth controlling degree) ([2]; Rate 125 g a.i./ha): 30%; Pre-emergence Herbicidal Activity SETVI (growth controlling degree) ([3]; Rate 125 g a.i./ha): 10%; Pre-emergence Herbicidal Activity AMARE (growth controlling degree) ([4]; Rate 125 g a.i./ha): 100%; Pre-emergence Herbicidal Activity SIDSP (growth controlling degree) ([5]; Rate 125 g a.i./ha): 98%; Pre-emergence Herbicidal Activity ABUTH (growth controlling degree) ([6]; Rate 125 g a.i./ha): 80%; Pre-emergence Herbicidal Activity ORYSA (growth controlling degree) ([7]; Rate 125 g a.i./ha): 0%; Pre-emergence Herbicidal Activity TRZAX (growth controlling degree) ([8]; Rate 125 g a.i./ha): 0%; Pre-emergence Herbicidal Activity ZEAMX (growth controlling degree) ([9]; Rate 125 g a.i./ha): 0%; Pre-emergence Herbicidal Activity GLXMA (growth controlling degree) ([10]; Rate 125 g a.i./ha): 10% |
| COc1c(Cl)cc(F)c(-c2nn(C)c(OC(F)F)c2Cl)c1NC(=O)CCOc1ccccc1 [Compound 1-34] | 0% | 60% | 70% | 100% | 70% | 30% | 70% | 70% | 100% | 100% | 100% | 100% | 40% | 30% | 50% | 70% | 100% | 50% | 80% | 30% | Pre-emergence Herbicidal Activity ORYSA (growth controlling degree) ([7]; Rate 63 g a.i./ha): 0%; Pre-emergence Herbicidal Activity TRZAX (growth controlling degree) ([8]; Rate 63 g a.i./ha): 0%; Pre-emergence Herbicidal Activity ZEAMX (growth controlling degree) ([9]; Rate 63 g a.i./ha): 0%; Pre-emergence Herbicidal Activity GLXMA (growth controlling degree) ([10]; Rate 63 g a.i./ha): 0% |
